For 19 compounds, IC50 results are on record in patent publication US11634417B2 (Array BioPharma Inc., priority 2019, dated 2023).

The structures appear in SMILES notation. Where a name gives a salt, the structure may show the parent alone.

For one assay, the target named is T1, full-length SHP2 (Homo sapiens, UniProt Q06124).
T1 construct: 1 nM full-length SHP2 (His6-tagged SHP2(2-527), recombinantly expressed in E. coli and purified in-house); His6; made in house; host or cells: E. coli
T1 sequence (Q06124 2-527): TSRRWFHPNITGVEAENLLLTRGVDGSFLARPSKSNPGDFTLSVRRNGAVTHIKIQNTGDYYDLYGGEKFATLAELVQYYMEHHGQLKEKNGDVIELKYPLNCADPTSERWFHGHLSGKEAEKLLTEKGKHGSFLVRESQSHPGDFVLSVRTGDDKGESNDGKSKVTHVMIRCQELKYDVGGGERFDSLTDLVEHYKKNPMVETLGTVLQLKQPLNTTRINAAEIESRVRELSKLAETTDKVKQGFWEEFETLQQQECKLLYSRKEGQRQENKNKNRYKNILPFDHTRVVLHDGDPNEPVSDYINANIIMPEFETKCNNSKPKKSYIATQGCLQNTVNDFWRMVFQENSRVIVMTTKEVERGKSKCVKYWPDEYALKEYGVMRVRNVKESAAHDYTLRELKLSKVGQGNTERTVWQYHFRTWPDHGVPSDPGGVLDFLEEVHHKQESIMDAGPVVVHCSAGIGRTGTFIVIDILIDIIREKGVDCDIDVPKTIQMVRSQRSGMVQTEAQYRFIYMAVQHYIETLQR
The experiment in a line: SHP2 enzymatic assay (fluorescence intensity kinetic assay, DiFMUP hydrolysis). It counts as biochemical. The following applies: 1 nM His6-tagged SHP2(2-527), 1 μM activating peptide, 50 μM DiFMUP; single assay or mean of multiple assays; read-out: Biological Example 1 IC50. The protocol:
A fluorescence intensity kinetic assay was configured for full-length SHP2 that monitors the amount of 6,8-difluoro-7-hydroxy-4-methylcoumarin (“DiFMU”) formed upon hydrolysis of 6,8-difluoro-4-methylumbelliferyl phosphate (“DiFMUP”) by SHP2. […] Low control wells lacked enzyme. The assays were initiated by the addition of a mixture of SHP2 and the activating peptide, and following a 15 second mix on an orbital shaker, were read in kinetic mode for 15 minutes (30 seconds/cycle) at ambient temperature on a PerkinElmer EnVision microplate reader (kEx=355 nm, kEm=460 nm). Initial velocities (slopes of the tangents at t=0) were estimated from exponential fits to the slightly nonlinear progress curves and then were converted to percent of control (“POC”) using the following equation:
[formula] • Where: xmax Average Uninhibited Controls • Xmin Average Background A 4-parameter logistic model was the fit to the POC data for each compound. From that fit, the IC50 was estimated and is defined as the concentration of compound at which the curve crosses 50 POC.

Assay [1] deals with ERK1/2 (Thr202/Tyr204) phosphorylation in KYSE520 cells. The experiment in a line: Cellular Phospho-p44/42 MAPK (Erk1/2) (Thr202/Tyr204) assay, In-Cell Western. It counts as cell-based. The conditions noted are these: Homo sapiens, KYSE-520; KYSE520 cells, 1 hour incubation, pERK signal normalized to GAPDH; single assay or mean of multiple assays; read-out: Biological Example 2 IC50. The protocol:
Inhibition of ERK1/2 (Thr202/Tyr204) phosphorylation was determined by the following cellular assay, which comprises incubating cells with a compound for 1 hour and quantifying pERK signal by In-Cell Western on fixed cells and normalizing to GAPDH signal. KYSE520 cells were obtained from DSMZ and grown in RPMI supplemented with 10% fetal bovine serum, penicillin/streptomycin, 2 mM L-alanyl-L-glutamine dipeptide in 0.85% NaCl (Glutamax™), non-essential amino acids, and sodium pyruvate. Cells were plated in 96-well plates at 30,000 cells/well and allowed to attach overnight at 37° C./5% CO2. Cells were treated with compounds prepared as a 10-point, 1:3 dilution series (range: 20 μM-1 nM), with a final DMSO concentration of 0.5%. After 1 hour incubation, cells were fixed in 3.7% formaldehyde in Dulbecco's phosphate-buffered saline (“dPBS”) at room temperature for 20 minutes. Cells were then washed with dPBS and permeabilized in 100% MeOH at room temperature for 10 minutes. Following permeabilization, cells were washed in dPBS and incubated in LI-COR Blocking Buffer (LI-COR Biosciences, Cat #927-40000) for 1 hour or longer. Plates were then incubated with an antibody specific for the MEK-dependent ERK1/2 phosphorylation sites, threonine 202 and tyrosine 204 (Cell Signaling Technologies; Cat #9101), downstream of SHP2 in the MAP kinase signal transduction pathway, as well as GAPDH (Millipore; Cat #MAB374). pErk1/2 (Thr202/Tyr204) antibody was diluted in LI-COR blocking buffer containing 0.05% polysorbate-20 (Tween-20) at 1:250; GAPDH was diluted at 1:2,500. The plates were incubated overnight at 4° C. After washing with PBS/0.05% Tween-20, the cells were incubated with fluorescently-labeled secondary antibodies (Anti-rabbit-Alexa Flour680, Invitrogen Cat #A21109; Anti-mouse-IRDye800CW, Li-cor Bioscieces Cat #926-32210, both at 1:1000 dilution) for 1 hour. Cells were then washed, as above, and analyzed for fluorescence at both 680 nm and 800 nm wavelengths using the Aerius Infrared Imaging System (LI-COR Biosciences, Model 9250). Phosphorylated Erk1/2 ([…]) signal was normalized to GAPDH signal for each well. IC50 values were calculated from the normalized values using a 4-parameter fit in BioAssay software. The reported IC50 in Table 2 may be from a single assay or the mean of multiple assays.

Regarding `C[C@@H]1OCC2(CCN(c3ncc(Sc4ccnc5[nH]ccc45)nn3)CC2)[C@@H]1N` [Example 8, (3S,4S)-8-(6-((1H-pyrrolo[2,3-6]pyridin-4-yl)thio)-1,2,4-triazin-3-yl)-3-methyl-2-oxa-8-azaspiro[4.5]decan-4-amine], the figures for the IC50 (on full-length SHP2; in assay [1]) were 69 nM and 48 nM, respectively.

On to `C[C@@H]1OCC2(CCN(c3ncc(Sc4c(Cl)cnc5[nH]ccc45)nn3)CC2)[C@@H]1N` [Example 9, (3S,4S)-8-(6-((5-chloro-1H-pyrrolo[2,3-b]pyridin-4-yl)thio)-1,2,4-triazin-3-yl)-3-methyl-2-oxa-8-azaspiro[4.5]decan-4-amine], for which the IC50 was found to be 358 nM at full-length SHP2 and 699 nM in assay [1].

In the case of `CC1(N)CCCN(c2ncc(Sc3ccnc(N)c3Cl)nn2)CC1` (centres unmarked) [Example 10, 1-(6-((2-amino-3-chloropyridin-4-yl)thio)-1,2,4-triazin-3-yl)-4-methylazepan-4-amine], the IC50 on full-length SHP2 is 551 nM; in assay [1] it was 687 nM.

Consider `CC1(N)CCCN(c2ncc(Sc3cccc(Cl)c3Cl)nn2)CC1` (centres unmarked) [Example 11, 1-(6-((2,3-dichlorophenyl)thio)-1,2,4-triazin-3-yl)-4-methylazepan-4-amine], for which the values for the IC50 (at full-length SHP2; in assay [1]) were 210 nM and 1970 nM, respectively.

As for `NC1C[C@@H]2CC[C@@H](C1)N2c1ncc(Sc2cccc(Cl)c2Cl)nn1` (stereo partly drawn) [Example 12, (1R,3s,5S)-8-(6-((2,3-dichlorophenyl)thio)-1,2,4-triazin-3-yl)-8-azabicyclo[3.2.1]octan-3-amine], the IC50 at full-length SHP2 was 174 nM; in assay [1] it was 1110 nM.

As for `Cc1nc(N2CCC3(CC2)CO[C@@H](C)[C@H]3N)nnc1Sc1cccc(Cl)c1Cl` [Example 13, (3S,4S)-8-(6-((2,3-dichlorophenyl)thio)-5-methyl-1,2,4-triazin-3-yl)-3-methyl-2-oxa-8-azaspiro[4.5]decan-4-amine], the values for the IC50 (at full-length SHP2; in assay [1]) were 141 nM and 1030 nM, respectively.

On to `Cc1nccc(Sc2cnc(N3CCC4(CC3)CO[C@@H](C)[C@H]4N)nn2)c1Cl` [Example 14, (3S,4S)-8-(6-((3-chloro-2-methylpyridin-4-yl)thio)-1,2,4-triazin-3-yl)-3-methyl-2-oxa-8-azaspiro[4.5]decan-4-amine], for which the IC50 on full-length SHP2 came to 53 nM; in assay [1] it was 61 nM.

As to `Nc1nccc(Sc2cnc(N3CCC4(CC3)Cc3ncccc3[C@@H]4N)nn2)c1Cl` [Example 16, (R)-1′-(6-((2-amino-3-chloropyridin-4-yl)thio)-1,2,4-triazin-3-yl)-5,7-dihydrospiro[cyclopenta[b]pyridine-6,4′-piperidin]-5-amine trihydrochloride], the results for the IC50 (on full-length SHP2; in assay [1]) were 175 nM and 49 nM, respectively.

Take `Nc1nccc(Sc2cnc(N3CCC4(CC3)Cc3cc(Cl)ccc3[C@H]4N)nn2)c1Cl` [Example 17, (S)-1′-(6-((2-amino-3-chloropyridin-4-yl)thio)-1,2,4-triazin-3-yl)-5-chloro-1,3-dihydrospiro[indene-2,4′-piperidin]-1-amine]: the half-inhibitory concentration (IC50) on full-length SHP2 was found to be 25 nM; in assay [1], 9 nM.

Regarding `Nc1cc(Sc2cnc(N3CCC4(CC3)Cc3ccccc3[C@H]4N)nn2)c(Cl)cn1` [Example 18, (S)-1′-(6-((2-amino-5-chloropyridin-4-yl)thio)-1,2,4-triazin-3-yl)-1,3-dihydrospiro[indene-2,4′-piperidin]-1-amine], the figures for the IC50 (at full-length SHP2; in assay [1]) were 15 nM and 8 nM, respectively.

Regarding `Nc1nccc(Sc2cnc(N3CCC4(CC3)Cc3ccccc3[C@H]4N)nn2)c1C1CC1` [Example 19, (S)-1′-(6-((2-amino-3-cyclopropylpyridin-4-yl)thio)-1,2,4-triazin-3-yl)-1,3-dihydrospiro[indene-2,4′-piperidin]-1-amine], the IC50 stood at 44 nM on full-length SHP2 and 208 nM in assay [1].

For the compound `Nc1ccc(Oc2cnc(N3CCC4(CC3)Cc3ccccc3[C@H]4N)nn2)cn1` [Example 22, (S)-1′-(6-((6-aminopyridin-3-yl)oxy)-1,2,4-triazin-3-yl)-1,3-dihydrospiro[indene-2,4′-piperidin]-1-amine], the figures for the IC50 (at full-length SHP2; in assay [1]) were 32 nM and 17 nM, respectively.

`Nc1nccc(Sc2cnc(N3CCC4(CC3)Oc3ccccc3[C@H]4N)nn2)c1Cl` [Example 23, (R)-1′-(6-((2-amino-3-chloropyridin-4-yl)thio)-1,2,4-triazin-3-yl)-3H-spiro[benzofuran-2,4′-piperidin]-3-amine]: the IC50 came out at 35 nM at full-length SHP2 and 12 nM in assay [1].

Turning to `Nc1nccc(Sc2cnc(N3CCC4(CC3)Cc3ncccc3[C@H]4N)nn2)c1Cl` [Example 24, (S)-1′-(6-((2-amino-3-chloropyridin-4-yl)thio)-1,2,4-triazin-3-yl)-5,7-dihydrospiro[cyclopenta[b]pyridine-6,4′-piperidin]-5-amine], the IC50 at full-length SHP2 is 47 nM; in assay [1], 5 nM.

As for `N[C@@H]1c2ccccc2CC12CCN(c1ncc(Sc3ccnc4c3C(F)(F)C(=O)N4)nn1)CC2` [Example 25, (S)-4-((3-(1-amino-1,3-dihydrospiro[indene-2,4′-piperidin]-1′-yl)-1,2,4-triazin-6-yl)thio)-3,3-difluoro-1,3-dihydro-2H-pyrrolo[2,3-b]pyridin-2-one], the IC50 is 26 nM on full-length SHP2 and 2 nM in assay [1].

As for `N[C@@H]1c2ccccc2CC12CCN(c1ncc(Sc3c[nH]c4ncccc34)nn1)CC2` [Example 26, (S)-1′-(6-((1H-pyrrolo[2,3-b]pyridin-3-yl)thio)-1,2,4-triazin-3-yl)-1,3-dihydrospiro[indene-2,4′-piperidin]-1-amine], the IC50 worked out at 49 nM on full-length SHP2 and 120 nM in assay [1].

As to `N[C@@H]1c2ccccc2CC12CCN(c1ncc(Sc3n[nH]c4ncccc34)nn1)CC2` [Example 27, (S)-1′-(6-((1H-pyrazolo[3,4-b]pyridin-3-yl)thio)-1,2,4-triazin-3-yl)-1,3-dihydrospiro[indene-2,4′-piperidin]-1-amine], the figures for the IC50 (on full-length SHP2; in assay [1]) were 17 nM and 11 nM, respectively.

Consider `N[C@@H]1c2ccccc2CC12CCN(c1ncc(Oc3cccc4cnccc34)nn1)CC2` [Example 28, (S)-1′-(6-(isoquinolin-5-yloxy)-1,2,4-triazin-3-yl)-1,3-dihydrospiro[indene-2,4′-piperidin]-1-amine], for which the IC50 was found to be 879 nM on full-length SHP2 and 1140 nM in assay [1].

For the compound `C[C@@H]1OCC2(CCN(c3ncc(Sc4ccnc5c4ccn5C)nn3)CC2)[C@@H]1N` [Example 29, (3S,4S)-3-methyl-8-(6-((1-methyl-1H-pyrrolo[2,3-b]pyridin-4-yl)thio)-1,2,4-triazin-3-yl)-2-oxa-8-azaspiro[4.5]decan-4-amine], the values for the IC50 (on full-length SHP2; in assay [1]) were 96 nM and 206 nM, respectively.

What is called IC50 is the concentration that gives 50% inhibition.
